From BindingDB's records for PubMed 9454790 (University of Arizona, 1998) come the findings set out here.

For experiment [1], the target named is T1, Muscarinic acetylcholine receptor M2 (Homo sapiens, UniProt P08172).
T1 sequence (P08172 whole entry): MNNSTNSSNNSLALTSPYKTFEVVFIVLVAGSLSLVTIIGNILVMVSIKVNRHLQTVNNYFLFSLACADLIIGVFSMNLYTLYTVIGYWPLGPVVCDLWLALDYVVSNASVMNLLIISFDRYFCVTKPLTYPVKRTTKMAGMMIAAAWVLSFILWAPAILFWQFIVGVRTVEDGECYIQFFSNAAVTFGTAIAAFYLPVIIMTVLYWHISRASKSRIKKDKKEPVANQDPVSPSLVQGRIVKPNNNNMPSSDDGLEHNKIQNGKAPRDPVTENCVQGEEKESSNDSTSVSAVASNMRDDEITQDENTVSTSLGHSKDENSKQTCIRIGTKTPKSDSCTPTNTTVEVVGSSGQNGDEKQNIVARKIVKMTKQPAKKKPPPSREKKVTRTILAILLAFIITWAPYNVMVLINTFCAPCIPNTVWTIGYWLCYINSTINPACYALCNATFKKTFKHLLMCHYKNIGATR

The target in experiment [2] is T2, Muscarinic acetylcholine receptor M2 (Rattus norvegicus, UniProt P10980).
T2 sequence (P10980 whole entry): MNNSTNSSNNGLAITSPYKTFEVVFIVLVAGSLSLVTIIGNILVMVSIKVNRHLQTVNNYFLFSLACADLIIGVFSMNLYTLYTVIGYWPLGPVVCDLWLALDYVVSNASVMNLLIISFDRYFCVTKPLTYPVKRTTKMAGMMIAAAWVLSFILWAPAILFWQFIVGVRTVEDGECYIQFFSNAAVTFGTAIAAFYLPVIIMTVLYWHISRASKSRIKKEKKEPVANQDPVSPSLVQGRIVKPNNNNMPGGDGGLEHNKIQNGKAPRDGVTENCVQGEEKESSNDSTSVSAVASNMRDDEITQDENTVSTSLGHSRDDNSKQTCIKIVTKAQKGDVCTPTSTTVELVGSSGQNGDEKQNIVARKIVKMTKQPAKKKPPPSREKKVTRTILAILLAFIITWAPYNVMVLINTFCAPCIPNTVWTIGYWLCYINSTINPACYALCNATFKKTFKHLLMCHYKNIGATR

In general, Ki refers to a dissociation constant, usually derived from enzyme kinetics or from competition with a known ligand. High values mean lower affinity, low ones higher affinity. On to `CCN(CC)CC1CCCCN1CC(=O)N1c2ccccc2C(=O)Nc2cccnc21` (configuration not stated) [(AF-DX 116) 11-[2-(2-Diethylaminomethyl-piperidin-1-yl)-acetyl]-5,11-dihydro-benzo[e]pyrido[3,2-b][1,4]diazepin-6-one], for which the inhibitory constant (Ki) is 0.067 µM in experiment [1] and 0.05 µM in experiment [2].

On to `CN(C)CCCN1c2ccccc2CCc2ccccc21`, for which, in experiment [1], the inhibitory constant (Ki) was 0.00013 µM.

Regarding `C[N+]1(C)CCO[C@@](O)(c2ccc(-c3ccc([C@@]4(O)C[N+](C)(C)CCO4)cc3)cc2)C1` [CAS_312-45-8], in experiment [1], the Ki was determined as 0.011 µM.

Regarding `COc1cc2c3cc1Oc1cc(ccc1O)C[C@H]1c4c(cc(OC)c(O)c4Oc4ccc(cc4)C[C@@H]3N(C)CC2)CC[N+]1(C)C` [CAS_57-94-3], the Ki in experiment [1] is 0.097 µM.

With `C[C@H]1OC(=O)C2C[C@H]3CCCC[C@@H]3[C@@H](/C=C/[C@@H]3CCC[C@H](C)N3C)C21` (some centres not stated) [HIMBACINE], the Ki in experiment [1] stood at 0.012 µM; in experiment [2] it was 0.014 µM.

For `O=C1CCCN1CC#CCN1CCCC1` [1-[4-(2-oxo-pyrrolidin-1-yl)-but-2-ynyl]-pyrrolidinium], the results for the Ki in experiment [1] and in experiment [2] were 0.235 µM and 0.29 µM, respectively.

Take `C=C[C@@H]1CN2CC[C@H]1C[C@@H]2[C@H](O)c1ccnc2ccc(OC)cc12` [Quinidine]: the inhibitory constant (Ki) in experiment [1] was found to be 0.0075 µM.

Consider `C[N+](C)(C)CCCCCCCCCC[N+](C)(C)C` [Decamethonium Iodide], for which the Ki in experiment [1] came to 0.025 µM.

In turn, `CC[N+](CC)(CC)CCOc1cccc(OCC[N+](CC)(CC)CC)c1OCC[N+](CC)(CC)CC` had a Ki in experiment [2] of 2.61 µM.
